From patent US5716950A, “Diazacycloalkanealkylsulfonamide derivatives” (Nippon Shoji Kabushiki Kaisha, priority 1994, dated 1998) come the findings set out here.

The test system of data set [1] is mouse biphasic allergic dermal reaction. The experiment in a line: Mouse Biphasic Allergic Dermal Reaction. It counts as in vivo, Female Balb/c mice. The note with it: for inhibition in vivo at 0.1 mg/kg / inhibition in vivo at 1 mg/kg: Mus musculus, oral; for suppression of the late allergic reaction (in words): edema after 24 hours. On the procedure: Female Balb/c mice (weighing 18 to 25 g) were subjected to passive sensitization by intravenous administration of 1 ml of anti-DNP monoclonal IgE antibody showing 1:1024 of antibody titer. 24 hours after the sensitization, 25 μl of 0.15% dinitrofluorobenzene (DNFB) were applied to both sides of right and left auricles of mouse for inducing allergic reactions. Thickness of auricles were measured using Dial Thickness Gauge before the challenge with DNFB, and 1 and 24 hours after the challenge. And then, increase in thickness of auricles at 1 hour after the challenge (edema caused by immediate allergic reaction) and that at 24 hours after the challenge (edema caused by late allergic reaction) were calculated against the thickness of auricles before the challenge with DNFB, respectively.
Suppression rate was expressed by relative ratio (%) to the value in control in which a solvent was administered.
Test compounds, diphenhydramine which is a existing classical antihistamic drug, amlexanox which is an antiallergic drug and dexamethasone which is a steroidal drug were administered orally (partly intraperitoneally) once before antigen challenge.
The above test was performed by using a mouse biphasic allergic dermal reaction model which was a new model [see, Sakurai T, Inagaki, N. and Nagai, H Life Sci., 54, PL291-295 (1994)]. In this model, the immediate allergic reaction was induced by mediator release from mast cell at 1 hour after the challenge, and the late allergic reaction with inflammatory cells such as eosinophil (edema after 24 hours) was induced after 24 hours from the challenge.

Data set [2] relates to passive cutaneous anaphylaxis (PCA). The experiment in a line: Activity of suppressing passive cutaneous anaphylaxis (PCA). Particulars: Rattus norvegicus, po, 1 h, 10 mg/kg-po, 1 hour before antigen challenge; read-out: % suppression of rat PCA. The class given is in vivo, Male Wistar rats. On the procedure:
Test compounds were examined on their antiallergic activities. […] After 48 hours, 1.0 ml of 0.5 % Evans Blue saline solution containing DNP.BSA (1 mg in protein) was injected through the tail vein to induce allergic reaction. After 30 minutes, the rats were sacrificed by bleeding and the skin of back where dye was leaked out was flayed and put it into 20 ml test tube with ground stopper. Thereto was added 1.0 ml of 1N KOH aqueous solution and then it was allowed to stand at 37° C. in incubator overnight for lysing. To this solution was added 8.3 ml of a mixture of acetone and 0.6N phosphoric acid (13:5) and the mixture was mixed well and then was filtered to remove the insoluble materials.
The test compounds were administered orally 1 hour before the antigen challenge. Suppression rate was expressed by percentage to the value in control where 0.5% aqueous methylcellulose solution was orally administered.

For a further data set, the system named is male ICR mice. The experiment in a line: Toxicity Test (mouse acute toxicity, minimum lethal dose). Particulars: po, observed for 24 hours, head prints (10 mg/kg-po). It counts as in vivo. The source says: The test compounds were orally administered to male ICR mice (weighing to 30 g) after fasting overnight. […] The results were expressed by minimum lethal dose. Toxicity of any compounds of the present invention were weaker than that of ketotifen which was a reference compound.

For data set [3], the system named is extracted ileum (histamine contraction). Nature of the data set: Antihistaminic activity: suppression of histamine-induced contraction of extracted ileum. The note with it: histamine 3×10^-7 M; guinea pig ileum; 50% suppression of contraction; read-out: anti-His in extracted ileum EC50. Further details: species or system Female Hartley guinea pig. The method, then:
Female Hartley guinea pig (weighing 500 to 650 g) were sacrificed and the ileum (length of about 10 to 25 cm) was extracted from the ileocecum to prepare a specimen (length of 3 cm). […] After allowing to stand for 60 minutes to make the specimen stable, a histamine (3×10^-7 M) was applied to the specimen at single application. Contraction of the specimen was determined and recorded using isotonic transducer. After repeating application of a histamine to make the contraction constant, a diluted solution of the test compound was applied. Three minutes after the application, a histamine was then added and an activity of suppressing contraction was examined.

[4] abbreviates: 1 h, read-out: immediate edema (1 hr) suppression (%).
[5] abbreviates: 24 h, read-out: late edema (24 hr) suppression (%).

Molecules are shown by their SMILES. Where two headings read alike, the source gives them in different places.

Consider `O=S(=O)(CCCCCCN1CCN(C(c2ccccc2)c2ccc(Cl)cc2)CC1)NC1CC1` (stereo not shown) [Example 54], for which, in data set [1] (setting [4]), the inhibition in vivo at 0.1 mg/kg worked out at 19% and the inhibition in vivo at 1 mg/kg came out at 52.4%. For the same compound, in data set [1] (setting [5]), the inhibition in vivo at 0.1 mg/kg amounted to 37% and the inhibition in vivo at 1 mg/kg is 51.9%. In addition, the “suppression of the late allergic reaction (in words)” value (“suppression” below) in data set [1] is “showed strong activity of suppressing the late allergic reaction”. The inhibition in vivo at 10 mg/kg in data set [2] was found to be 89.2%. Moreover, the “mouse acute toxicity (lethal dose)” value with male ICR mice was above 500 mg/kg. Also, the EC50 (usually the concentration that produces a half-maximal response) in data set [3] is 420 nM.

For the compound `O=S(=O)(CCCCCCN1CCN(C(c2ccc(F)cc2)c2ccccn2)CC1)NC1CC1` (stereo not shown) [Example 56], in data set [1] (setting [4]), the inhibition in vivo at 1 mg/kg amounted to 15.8%. In addition, in data set [1] (setting [5]), the inhibition in vivo at 0.1 mg/kg turned out to be 3.8% and the inhibition in vivo at 1 mg/kg was determined as 34.6%. Besides, in data set [1], the “suppression” value is on record as “showed strong activity of suppressing the late allergic reaction”. The inhibition in vivo at 10 mg/kg in data set [2] came out at 94.5%. Further, in the data set on male ICR mice, the “mouse acute toxicity (lethal dose)” value was above 500 mg/kg. The EC50 in data set [3] turned out to be 440 nM.

Regarding `O=S(=O)(CCCCCCN1CCN(C(c2ccc(F)cc2)c2ccccn2)CC1)NC1CCCC1` (stereo not shown) [Example 61], the inhibition in vivo at 0.1 mg/kg is 5% in data set [1] (setting [4]) and 37% in data set [1] (setting [5]). The inhibition in vivo at 1 mg/kg in data set [1] (setting [5]) came to 44.4%. In addition, the “suppression” value in data set [1] was “showed strong activity of suppressing the late allergic reaction”. In addition, the inhibition in vivo at 10 mg/kg in data set [2] came to 89.7%. In the data set with male ICR mice, the “mouse acute toxicity (lethal dose)” value is above 500 mg/kg. In addition, the EC50 in data set [3] is 310 nM.

For the compound `O=S(=O)(CCCCCCN1CCN(C(c2ccccc2)c2cccc(Cl)c2)CC1)NC1CC1` (stereo not shown) [Example 120], in data set [1] (setting [4]), the inhibition in vivo at 0.1 mg/kg worked out at 26.1% and the inhibition in vivo at 1 mg/kg came to 56.5%. Further, in data set [1] (setting [5]), the inhibition in vivo at 0.1 mg/kg is 7.1% and the inhibition in vivo at 1 mg/kg was 25%. In data set [1], the “suppression” value is given as “showed strong activity of suppressing the late allergic reaction”. For the same compound, in data set [2], the inhibition in vivo at 10 mg/kg turned out to be 93.4%. The “mouse acute toxicity (lethal dose)” value with male ICR mice is above 500 mg/kg. Besides, in data set [3], the EC50 was found to be 700 nM.

For the compound `O=S(=O)(CCCCCCN1CCN(C(c2ccccc2)c2ccc(Cl)cc2)CC1)NC1CCC1` (stereo not shown) [Example 128], in data set [1] (setting [4]), the inhibition in vivo at 0.1 mg/kg was 32% and the inhibition in vivo at 1 mg/kg was 28%. In data set [1] (setting [5]), the inhibition in vivo at 0.1 mg/kg turned out to be 36% and the inhibition in vivo at 1 mg/kg turned out to be 40%. In addition, the “suppression” value in data set [1] is listed as “showed strong activity of suppressing the late allergic reaction”. In addition, the inhibition in vivo at 10 mg/kg in data set [2] worked out at 86.1%. Further, the “mouse acute toxicity (lethal dose)” value in the data set with male ICR mice is on record as above 500 mg/kg. Also, the EC50 in data set [3] came out at 320 nM.

Consider `O=S(=O)(CCCCCCN1CCN(C(c2ccccc2)c2ccc(Cl)cc2)CC1)NC1CCCCC1` (stereo not shown) [Example 143], for which, in data set [1] (setting [4]), the inhibition in vivo at 0.1 mg/kg was 24% and the inhibition in vivo at 1 mg/kg was determined as 40%. Also, in data set [1] (setting [5]), the inhibition in vivo at 0.1 mg/kg is 4% and the inhibition in vivo at 1 mg/kg was 28%. Also, the “suppression” value in data set [1] is recorded as “showed strong activity of suppressing the late allergic reaction”. In addition, the inhibition in vivo at 10 mg/kg in data set [2] worked out at 87.8%. For the same compound, the “mouse acute toxicity (lethal dose)” value in the data set with male ICR mice is above 500 mg/kg. The EC50 in data set [3] came to 2800 nM.
